# Patent US7820834B2, “Triptolide 5,6-derivatives as immunomodulators and anticancer agents” (Pharmagenesis, Inc., priority 2004, dated 2010)
# Experiments:
# Type in all cases: cell-based
# [1] = tested on: Jurkat human T lymphoma cell line; assay: Annexin V Apoptosis Assay; details: 24 h, dose-dependent, FIG. 1
# Procedure: Test samples were diluted to 1 mM in complete tissue culture medium (RPMI 1640 medium plus 5% heat-inactivated fetal calf serum, 1% HEPES, 1% pen/strep, 1% glutamine). Aliquots were placed in microculture plates and serial dilutions were prepared so that the final concentration would encompass the range of 2 to 6,000 nM with half-log increments. Cells from an exponentially expanding culture of the Jurkat human T lymphoma cell line (#TIB-152 obtained from American Type Culture Collection, Manassas, Va.) were harvested, washed once by centrifugation, re-suspended in complete tissue culture medium, and further diluted to a concentration of 1×10^6 cells/ml. A volume of 100 μl of the cells (1×10^5 cells) was added to wells containing 100 μl of the diluted compounds, and the plates were incubated at 37° C. in a 5% CO2 incubator.
# After 24 hours, the plates were centrifuged to pellet the cells, and the cells were washed twice with 2% heat-inactivated fetal calf serum in PBS. […] The contents of the wells were individually transferred into test tubes, and apoptosis was analyzed using a FACSCalibur flow cytometer (BD Immunocytometry Systems, San Jose, Calif.). Cells positive for Annexin V binding were considered to be apoptotic, and the data were calculated as percent apoptotic cells. […]
# [2] = tested on: IL-2 production in Jurkat cells; assay: IL-2 Inhibition Assay; details: without previous incubation in human serum, FIG. 4
# Procedure: Test compounds were diluted to 1 mM in complete tissue culture medium. Aliquots were placed in microculture plates coated with anti-CD3 antibody (used to stimulate the production of IL-2 by Jurkat cells), and serial dilutions were prepared so that the final concentration would encompass the range of 0.001 to 10,000 nM in log increments.
# Invention compound 14-acetyl-5,6-didehydrotriptolide (designated PG746) was tested with and without a previous 16-hr incubation in human serum. Such incubation is expected to substantially convert the 14-acetyl group of PG746 to a 14-hydroxy group.
# Cells from an exponentially expanding culture of Jurkat human T cell line (#TIB-152 obtained from American Type Culture Collection, Manassas, Va.) were harvested, washed once by centrifugation, re-suspended in complete tissue culture medium, and diluted to a concentration of 10^7 cells/ml. A volume of 50 μl of Jurkat cells was added to wells containing 100 μl of the diluted compounds, and the cells were stimulated with 50 ng/ml PMA and […] PHA. The plates were incubated at 37° C. in a 5% CO2 incubator. […] The stored supernatants were analyzed for human IL-2 concentration using the Luminex 100 (Luminex Corporation, Austin, Tex.), Luminex microspheres coupled with anti-IL-2 capture antibody, and fluorochrome-coupled anti-IL-2 detection antibody. The data were expressed as pg/ml of IL-2. […]
# [3] = tested on: human T cell lymphoma (Jurkat) cells; assay: Cytotoxicity (MTT) Assay; details: FIG. 2
# Procedure: Test compounds were dissolved in DMSO at a concentration of 20 mM. Further dilutions were done in RPMI1640 medium (GIBCO, Rockville, Md.) supplemented with 10% Fetal Calf Serum (HyClone Laboratories, Logan, Utah). Invention compound 14-acetyl-5,6-didehydrotriptolide (designated PG746) was tested with and without a previous 16-hr incubation in human serum. Such incubation is expected to substantially convert the 14-acetyl group of PG746 to a 14-hydroxy group.
# Cytotoxicity of the compounds was determined in a standard MTT assay using Cell Proliferation Kit I (#1 465 007, Roche Diagnostics, Mannheim, Germany). Accordingly, human T cell lymphoma (Jurkat) cells (4×10^5 per well) were cultured for 24 h, in 96-well tissue culture plates, in the presence of serial three-fold dilutions of test compounds or medium containing the same concentration of DMSO as in the test samples at each dilution point. The cultures were then supplemented with 10 μl/well MTT reagent for 4 h and then with 0.1 ml/well solubilizing reagent for an additional 16 h. Optical density at 570 nm was measured on a ThermoScan microplate reader (Molecular Devices, Menlo Park, Calif.).
# The data is presented as OD570 values versus concentration of the compounds. The results for invention compound 14-acetyl-5,6-didehydrotriptolide (designated PG746) and triptolide (designated PG490) are given in FIG. 2.
Compound,induction of apoptosis (Annexin V positive cells) [1],"inhibition of IL-2 production, activity relative to the medium control [2]",concentrations at which the compound was clearly cytotoxic to Jurkat cells (MTT) ([3]; after incubation for 16 hours with human serum) [nM],"cytotoxicity (MTT), activity relative to the medium control ([3]; in assay medium, without previous incubation in human serum)"
"CC(C)[C@]12O[C@H]1[C@@H]1O[C@]13[C@]1(O[C@H]1C[C@@]1(O)C4=C(CC[C@]31C)C(=O)OC4)[C@@H]2O [PG701, 5-α-hydroxytriptolide]",induced apoptosis in Jurkat cells,,,
"CC(=O)O[C@@H]1[C@@]2(C(C)C)O[C@H]2[C@@H]2O[C@]23[C@]12O[C@H]2C=C1C2=C(CC[C@@]13C)C(=O)OC2 [PG746, 14-acetyl-5,6-didehydrotriptolide]",,no significant activity relative to the medium control,≥ 1000,no significant activity relative to the medium control
